These results are taken from patent US20040014676A1, “SRC kinase inhibitors useful for treating osteoporosis” (priority 2001, published 2004).

The assay deals with T1, Src kinase (Homo sapiens, UniProt P12931).
T1 construct: purchased Upstate Bioteolnology (sic; Upstate Biotechnology); later HMR stock 27597-019E1 #14-117
In words: Phosphorylation assay of Src kinase inhibitors (radiometric, 96 well filter plate). It counts as biochemical. The following applies: duplicates, tested in the range of 400-0.098 µM; 10 µM peptide substrate (FIYGAFKKKKNH2), 5 µM unlabeled ATP, room temperature 30 min; read-out: IC50. Put shortly: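 Radiometric filter-plate assay: Src kinase (1:100 dilution) was incubated with 10 μM peptide FIYGAFKKK-NH2, 5 μM unlabeled ATP and radiolabeled ATP for 30 min at room temperature. Reactions were stopped with 150 mM H3PO4, the peptide was captured on phosphocellulose and scintillation counted. Ki values were determined for some compounds.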

T1 sequence (P12931 whole entry): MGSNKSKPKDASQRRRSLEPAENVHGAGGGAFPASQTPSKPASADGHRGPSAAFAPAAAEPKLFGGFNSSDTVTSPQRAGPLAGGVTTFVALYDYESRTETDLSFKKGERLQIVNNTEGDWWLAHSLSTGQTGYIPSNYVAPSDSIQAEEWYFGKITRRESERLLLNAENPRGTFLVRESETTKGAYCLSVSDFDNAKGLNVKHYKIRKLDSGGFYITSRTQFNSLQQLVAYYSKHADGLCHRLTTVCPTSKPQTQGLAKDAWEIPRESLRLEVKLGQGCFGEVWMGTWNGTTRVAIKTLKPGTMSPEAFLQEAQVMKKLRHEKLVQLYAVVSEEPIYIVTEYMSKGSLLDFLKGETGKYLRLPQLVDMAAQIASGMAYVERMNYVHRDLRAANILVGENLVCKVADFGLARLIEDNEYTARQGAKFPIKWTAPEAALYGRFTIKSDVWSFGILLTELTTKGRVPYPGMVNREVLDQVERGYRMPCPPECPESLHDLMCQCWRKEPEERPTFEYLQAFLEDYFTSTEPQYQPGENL

Turning to `CN(CCCCOc1cc2ccccc2cc1C(=O)NCC(N)=O)C(=O)C(N)Cc1csc2ccccc12` (stereo not shown) [Example 153, 3-[[[4-[3-(BENZOTHIOPHEN-3-YL)-2- AMINO-1-OXO]PROPYL](N-METHYL)- AMINO]BUTOXY]-NAPHTHALENE-2- (N-ACETAMIDO)CARBOXAMIDE], the IC50 amounted to 0.33 µM.
The result for `C=CCOC(=O)C(CCCOc1cc2ccccc2cc1C(=O)NCC(N)=O)NC(=O)[C@H](N)Cc1csc2ccccc12` (stereo partly drawn) [Example 98, 3-[[4-[[1-OXO-2(S)-AMINO-3-(BENZO- THIOPHEN-3-YL)]PROPYL]AMINO][4- ACRYLOXYCARBOXY]BUTOXY]NAPHTHALENE-2-(N-ACETAMIDO)- CARBOXAMIDE] reads 2.5 µM; that for `N=C(N)NCCCC(NC(=O)c1cc2ccccc2cc1OCCCCNC(=O)[C@@H](N)Cc1ccc(O)cc1)C(N)=O` (stereo partly drawn) [Example 11, 3-[4-[[2(S)-AMINO-3-(4-HYDROXY- PHENYL)-1-OXOPROPYL]AMINO]- BUTOXY]-NAPHTHALENE-2-[N- [[AMIDO][(3-AMINOIMINOMETHYL)- PROPYLAMINO]METHYL]]- CARBOXAMIDE], 113 µM.
Consider `NC(=O)CNC(=O)c1cc2ccccc2cc1NCCCCNC(=O)[C@H](N)Cc1ccc(O)cc1` (stereo in doubt) [Example 123], for which the IC50 is 25 µM.

One may read the IC50 as the point on the concentration scale where inhibition reaches its midpoint.
